Columns and labels:
Bcl-xL = Bcl-xL (Homo sapiens, UniProt Q07817); assay: Bcl-xL binding affinity analysis (fluorescence polarization binding assay); set-up: scale not given here
Description: (§1) Bcl-2 and Bcl-xL binding can be determined using a variety of known methods. One such assay is a sensitive and quantitative in vitro binding assay using fluorescence polarization (FP) described by Wang, J. -L.; Zhang, Z -J.; Choksi, S.; Sjam. S.; Lu, Z.; Croce, C. M.; Alnenri, E. S.; Komgold, R.; Huang, Z. Cell permeable Bcl-2 binding peptides: a chemical approach to apoptosis induction in tumor cells. Cancer Res. 2000, 60, 1498-1502).
(§2) Bcl-2 and Bcl-xL binding affinity analysis data is presented below for various compounds of the invention.

Bcl-2 = Bcl-2 (Homo sapiens, UniProt P10415); assay: Bcl-2 binding affinity analysis (fluorescence polarization binding assay)
Description: as §1, §2

Sequence of Bcl-xL (Q07817 whole entry): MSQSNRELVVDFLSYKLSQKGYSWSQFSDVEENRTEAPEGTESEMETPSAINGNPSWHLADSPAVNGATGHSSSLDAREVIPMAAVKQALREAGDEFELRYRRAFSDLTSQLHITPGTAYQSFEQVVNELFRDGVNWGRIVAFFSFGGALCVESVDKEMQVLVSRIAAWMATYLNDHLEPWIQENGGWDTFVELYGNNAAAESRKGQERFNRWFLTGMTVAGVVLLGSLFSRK
Sequence of Bcl-2 (P10415 whole entry): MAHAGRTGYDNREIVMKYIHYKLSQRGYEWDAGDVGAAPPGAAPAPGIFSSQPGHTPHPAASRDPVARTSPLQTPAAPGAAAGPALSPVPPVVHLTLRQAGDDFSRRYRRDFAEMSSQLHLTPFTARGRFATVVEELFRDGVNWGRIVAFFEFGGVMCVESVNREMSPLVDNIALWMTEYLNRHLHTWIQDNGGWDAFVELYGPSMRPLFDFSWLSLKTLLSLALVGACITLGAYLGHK

## C[C@@H]1[C@@H](NC(=O)[C@@H]2[C@H]([C@H](C)O)[C@H](CO)ON2Cc2cccc(-c3cccc(O)c3)c2)C[C@H]2C[C@@H]1C2(C)C [Compound 147]
Bcl-xL
  Bcl-XL binding affinity Ki: ♯♯
Bcl-2
  Ki: < 800 nM

## C[C@@H]1[C@@H](NC(=O)[C@@H]2[C@H]([C@H](C)O)[C@H](CO)ON2Cc2cccc(-c3cccc(C(=O)N(C)CCCN(C)C)c3)c2)C[C@H]2C[C@@H]1C2(C)C [Compound 148]
Bcl-xL
  Bcl-XL binding affinity Ki: ♯
Bcl-2
  Ki: < 800 nM

## Cc1cc(-c2cccc(CN3O[C@@H](CO)[C@@H]([C@H](C)O)[C@H]3C(=O)N[C@H]3C[C@H]4C[C@@H]([C@@H]3C)C4(C)C)c2)ccc1C(=O)N(C)C [Compound 150]
Bcl-xL
  Bcl-XL binding affinity Ki: ♯♯
Bcl-2
  Ki: < 800 nM

## CC(C)CNC(=O)c1cccc(-c2cccc(CN3O[C@@H](CO)[C@@H]([C@H](C)O)[C@H]3C(=O)N[C@H]3C[C@H]4C[C@@H]([C@@H]3C)C4(C)C)c2)c1 [Compound 151]
Bcl-xL
  Bcl-XL binding affinity Ki: ♯♯
Bcl-2
  Ki: < 800 nM

## C[C@@H]1[C@@H](NC(=O)[C@@H]2[C@H]([C@H](C)O)[C@H](CO)ON2Cc2cccc(-c3cccc(C(=O)N4CC[C@@H](N(C)C)C4)c3)c2)C[C@H]2C[C@@H]1C2(C)C [Compound 152]
Bcl-xL
  Bcl-XL binding affinity Ki: ♯♯
Bcl-2
  Ki: < 800 nM

## COCCNC(=O)c1cccc(-c2cccc(CN3O[C@@H](CO)[C@@H]([C@H](C)O)[C@H]3C(=O)N[C@H]3C[C@H]4C[C@@H]([C@@H]3C)C4(C)C)c2)c1 [Compound 153]
Bcl-xL
  Bcl-XL binding affinity Ki: ♯
Bcl-2
  Ki: < 800 nM

## C[C@@H]1[C@@H](NC(=O)[C@@H]2[C@H]([C@H](C)O)[C@H](CO)ON2Cc2cccc(-c3cccc(C(=O)NCCCNC(=O)OC(C)(C)C)c3)c2)C[C@H]2C[C@@H]1C2(C)C [Compound 154]
Bcl-xL
  Bcl-XL binding affinity Ki: ♯♯
Bcl-2
  Ki: < 800 nM

## CCN1CCC[C@H]1CNC(=O)c1cccc(-c2cccc(CN3O[C@@H](CO)[C@@H]([C@H](C)O)[C@H]3C(=O)N[C@H]3C[C@H]4C[C@@H]([C@@H]3C)C4(C)C)c2OC)c1 [Compound 156]
Bcl-xL
  Bcl-XL binding affinity Ki: ♯
Bcl-2
  Ki: < 800 nM

## COc1c(CN2O[C@@H](CO)[C@@H]([C@H](C)O)[C@H]2C(=O)N[C@H]2C[C@H]3C[C@@H]([C@@H]2C)C3(C)C)cccc1-c1cccc(C(=O)NCCN(C)C)c1 [Compound 165]
Bcl-xL
  Bcl-XL binding affinity Ki: ♯
Bcl-2
  Ki: < 800 nM

## COc1c(CN2O[C@@H](CO)[C@@H]([C@H](C)O)[C@H]2C(=O)N[C@H]2C[C@H]3C[C@@H]([C@@H]2C)C3(C)C)cccc1-c1ccc(C(=O)N(C)C)cc1 [Compound 174]
Bcl-xL
  Bcl-XL binding affinity Ki: ♯
Bcl-2
  Ki: < 800 nM

## C[C@H](O)[C@@H]1[C@H](CO)ON(Cc2cccc(-c3cccc(NS(C)(=O)=O)c3)c2)[C@@H]1C(=O)NC1C[C@H]2C[C@@H]([C@@H]1C)C2(C)C (stereo partly drawn) [Compound 181]
Bcl-xL
  Bcl-XL binding affinity Ki: ♯♯
Bcl-2
  Ki: < 800 nM

## CC(=O)Nc1cccc(-c2cccc(CN3O[C@@H](CO)[C@@H]([C@H](C)O)[C@H]3C(=O)NC3C[C@H]4C[C@@H]([C@@H]3C)C4(C)C)c2)c1 (stereo partly drawn) [Compound 183]
Bcl-xL
  Bcl-XL binding affinity Ki: ♯♯
Bcl-2
  Ki: < 800 nM

## C[C@@H]1[C@@H](NC(=O)[C@@H]2[C@H]([C@H](C)O)[C@H](CO)ON2Cc2cccc(-c3ccc(C(=O)N(CCN(C)C)Cc4ccccc4)cc3)c2)C[C@H]2C[C@@H]1C2(C)C [Compound 185]
Bcl-xL
  Bcl-XL binding affinity Ki: ♯
Bcl-2
  Ki: < 800 nM

## CCN(CC)CCN(CCN(CC)CC)C(=O)c1ccc(-c2cccc(CN3O[C@@H](CO)[C@@H]([C@H](C)O)[C@H]3C(=O)N[C@H]3C[C@H]4C[C@@H]([C@@H]3C)C4(C)C)c2)cc1 [Compound 188]
Bcl-xL
  Bcl-XL binding affinity Ki: ♯
Bcl-2
  Ki: < 800 nM

## C[C@H](O)[C@@H]1[C@H](CO)ON(Cc2cccc(CN(CCN(C)C)CC3CCCCC3)c2)[C@@H]1C(=O)NC1C[C@H]2C[C@@H]([C@@H]1C)C2(C)C (stereo partly drawn) [Compound 190]
Bcl-xL
  Bcl-XL binding affinity Ki: ♯
Bcl-2
  Ki: < 800 nM

## COc1c(CN(CCN(C)C)Cc2ccccc2)cccc1CN1O[C@@H](CO)[C@@H]([C@H](C)O)[C@H]1C(=O)NC1C[C@H]2C[C@@H]([C@@H]1C)C2(C)C (stereo partly drawn) [Compound 197]
Bcl-xL
  Bcl-XL binding affinity Ki: ♯
Bcl-2
  Ki: < 800 nM

## C[C@@H]1[C@@H](NC(=O)[C@@H]2[C@H]([C@H](C)O)[C@H](CO)ON2Cc2cccc(-c3cccc(S(C)(=O)=O)c3)c2)C[C@H]2C[C@@H]1C2(C)C [Compound 200]
Bcl-xL
  Bcl-XL binding affinity Ki: ♯
Bcl-2
  Ki: < 800 nM

## CSc1cccc(-c2cccc(CN3O[C@@H](CO)[C@@H]([C@H](C)O)[C@H]3C(=O)N[C@H]3C[C@H]4C[C@@H]([C@@H]3C)C4(C)C)c2)c1 [Compound 201]
Bcl-xL
  Bcl-XL binding affinity Ki: ♯
Bcl-2
  Ki: < 800 nM

## C[C@@H]1[C@@H](NC(=O)[C@@H]2[C@H]([C@H](C)O)[C@H](CO)ON2Cc2cccc(-c3cccc([S+](C)[O-])c3)c2)C[C@H]2C[C@@H]1C2(C)C (stereo partly drawn) [Compound 202]
Bcl-xL
  Bcl-XL binding affinity Ki: ♯
Bcl-2
  Ki: < 800 nM

## C[C@@H]1[C@@H](NC(=O)[C@@H]2[C@H]([C@H](C)O)[C@H](CO)ON2Cc2cccc(CN(CCN(C)C)CCC(C)(C)C)c2)C[C@H]2C[C@@H]1C2(C)C [Compound 203]
Bcl-xL
  Bcl-XL binding affinity Ki: ♯
Bcl-2
  Ki: < 800 nM

## C[C@@H]1[C@@H](NC(=O)[C@@H]2[C@H]([C@H](C)O)[C@H](CO)ON2Cc2cccc(CN(CCCc3ccccc3)CCN(C)C)c2)C[C@H]2C[C@@H]1C2(C)C [Compound 205]
Bcl-xL
  Bcl-XL binding affinity Ki: ♯
Bcl-2
  Ki: < 800 nM

## CC(C)CCN(CCN(C)C)Cc1cccc(CN2O[C@@H](CO)[C@@H]([C@H](C)O)[C@H]2C(=O)N[C@H]2C[C@H]3C[C@@H]([C@@H]2C)C3(C)C)c1 [Compound 207]
Bcl-xL
  Bcl-XL binding affinity Ki: ♯
Bcl-2
  Ki: < 800 nM

## C[C@@H]1[C@@H](NC(=O)[C@@H]2[C@H]([C@H](C)O)[C@H](CO)ON2Cc2cccc(CN(CCc3ccccc3)CCN(C)C)c2)C[C@H]2C[C@@H]1C2(C)C [Compound 209]
Bcl-xL
  Bcl-XL binding affinity Ki: ♯
Bcl-2
  Ki: < 800 nM

## C[C@@H]1[C@@H](NC(=O)[C@@H]2[C@H]([C@H](C)O)[C@H](CO)ON2Cc2cccc(CN(CCN(C)C)C3CCCCC3)c2)C[C@H]2C[C@@H]1C2(C)C [Compound 211]
Bcl-xL
  Bcl-XL binding affinity Ki: ♯
Bcl-2
  Ki: < 800 nM

## C[C@@H]1[C@@H](NC(=O)[C@@H]2[C@H]([C@H](C)O)[C@H](CO)ON2Cc2cccc(CN(CCN(C)C)CC(C)(C)C)c2)C[C@H]2C[C@@H]1C2(C)C [Compound 213]
Bcl-xL
  Bcl-XL binding affinity Ki: ♯
Bcl-2
  Ki: < 800 nM

## C[C@@H]1[C@@H](NC(=O)[C@@H]2[C@H]([C@H](C)O)[C@H](CO)ON2Cc2cccc(-c3cccc(C(=O)NCCN4CCCC4)c3)c2)C[C@H]2C[C@@H]1C2(C)C [Compound 215]
Bcl-xL
  Bcl-XL binding affinity Ki: ♯
Bcl-2
  Ki: < 800 nM

## C[C@@H]1[C@@H](NC(=O)[C@@H]2[C@H]([C@H](C)O)[C@H](CO)ON2Cc2cccc(-c3cccc(C(=O)NCCCN(C)C)c3)c2)C[C@H]2C[C@@H]1C2(C)C [Compound 216]
Bcl-xL
  Bcl-XL binding affinity Ki: ♯
Bcl-2
  Ki: < 800 nM

## CC(C)NC(=O)c1cccc(-c2cccc(CN3O[C@@H](CO)[C@@H]([C@H](C)O)[C@H]3C(=O)N[C@H]3C[C@H]4C[C@@H]([C@@H]3C)C4(C)C)c2)c1 [Compound 217]
Bcl-xL
  Bcl-XL binding affinity Ki: ♯
Bcl-2
  Ki: < 800 nM

## C[C@@H]1[C@@H](NC(=O)[C@@H]2[C@H]([C@H](C)O)[C@H](CO)ON2Cc2cccc(-c3cccc(C(=O)NCCO)c3)c2)C[C@H]2C[C@@H]1C2(C)C [Compound 218]
Bcl-xL
  Bcl-XL binding affinity Ki: ♯
Bcl-2
  Ki: < 800 nM

## C[C@@H]1[C@@H](NC(=O)[C@@H]2[C@H]([C@H](C)O)[C@H](CO)ON2Cc2cccc(-c3cccc(C(N)=O)c3)c2)C[C@H]2C[C@@H]1C2(C)C [Compound 219]
Bcl-xL
  Bcl-XL binding affinity Ki: ♯
Bcl-2
  Ki: < 800 nM

## CNC(=O)c1cccc(-c2cccc(CN3O[C@@H](CO)[C@@H]([C@H](C)O)[C@H]3C(=O)N[C@H]3C[C@H]4C[C@@H]([C@@H]3C)C4(C)C)c2)c1 [Compound 220]
Bcl-xL
  Bcl-XL binding affinity Ki: ♯
Bcl-2
  Ki: < 800 nM

## C[C@H](O)[C@@H]1[C@H](CO)ON(Cc2cccc(CN(CCN(C)C)Cc3ccccc3)c2)[C@@H]1C(=O)NC1C[C@H]2C[C@@H]([C@@H]1C)C2(C)C (stereo partly drawn) [Compound 221]
Bcl-xL
  Bcl-XL binding affinity Ki: ♯
Bcl-2
  Ki: < 800 nM

## CC(C)CC(CN(C)C)NCc1cccc(CN2O[C@@H](CO)C([C@H](C)O)[C@H]2C(=O)NC2CC3CC([C@@H]2C)C3(C)C)c1 (stereo partly drawn) [Compound 223]
Bcl-xL
  Bcl-XL binding affinity Ki: ♯
Bcl-2
  Ki: < 800 nM

## C[C@H](O)[C@@H]1[C@H](CO)ON(Cc2cccc(-c3ccc(C(=O)N[C@H]4CCN(C)C4)cc3)c2)[C@@H]1C(=O)NC1C[C@H]2C[C@@H]([C@@H]1C)C2(C)C (stereo partly drawn) [Compound 231]
Bcl-xL
  Bcl-XL binding affinity Ki: ♯
Bcl-2
  Ki: < 800 nM

## C[C@@H]1[C@@H](NC(=O)[C@@H]2[C@H]([C@H](C)O)[C@H](CO)ON2Cc2cccc(N(CCN(C)C)Cc3ccccc3)c2)C[C@H]2C[C@@H]1C2(C)C [Compound 235]
Bcl-xL
  Bcl-XL binding affinity Ki: ♯♯
Bcl-2
  Ki: < 800 nM

## C[C@@H]1[C@@H](NC(=O)[C@@H]2[C@H]([C@H](C)O)[C@H](COC(=O)NCCN3CCOCC3)ON2Cc2cccc(-c3ccc(C(=O)N(C)C)cc3)c2)C[C@H]2C[C@@H]1C2(C)C [Compound 245]
Bcl-xL
  Bcl-XL binding affinity Ki: ♯
Bcl-2
  Ki: < 800 nM

## COc1ccc(C(O)C#Cc2cccc(CN3O[C@H](CO)[C@H]([C@@H](C)O)[C@@H]3C(=O)NCCCN(C)c3ccccc3)c2)c(C)c1 (stereo partly drawn) [Compound 247]
Bcl-xL
  Bcl-XL binding affinity Ki: ♯
Bcl-2
  Ki: < 800 nM

## C[C@@H](O)[C@H]1[C@@H](CO)ON(Cc2cccc(C#CC(O)c3ccc(-c4ccccn4)cc3)c2)[C@H]1C(=O)NCCCN(C)c1ccccc1 (stereo partly drawn) [Compound 252]
Bcl-xL
  Bcl-XL binding affinity Ki: ♯
Bcl-2
  Ki: < 800 nM

## C[C@H](O)[C@@H]1[C@H](CO)ON(Cc2cccc(N3CCN(C(=O)OCc4ccccc4)CC3)c2)[C@@H]1C(=O)NC1C[C@H]2C[C@@H]([C@@H]1C)C2(C)C (stereo partly drawn) [Compound 253]
Bcl-xL
  Bcl-XL binding affinity Ki: ♯
Bcl-2
  Ki: < 800 nM

Reference: patent US7851637B2, “Compounds and methods for inhibiting the interaction of BCL proteins with binding partners” (Infinity Pharmaceuticals, Inc., priority 2004, dated 2010)
